From US8609674B2, “Potassium channel modulators” (AbbVie Inc., priority 2010, dated 2013) come the findings set out here.

In experiment [1] the test system is chronic constriction injury-induced neuropathic pain. Nature of the experiment: Chronic constriction injury (CCI) model of neuropathic pain (Bennett model). The experiment is classed as in vivo, Sprague-Dawley rats. Conditions: rat CCI model, about 30 mg/kg i.p., 30 minutes or more before testing. From the text:
(§1) Adult male Sprague-Dawley rats (250-300 g body weight, Charles River Laboratories, Portage, Mich.) were used. Animal handling and experimental protocols were approved by the Institutional Animal Care and Use Committee (IACUC) at Abbott Laboratories. For all surgical procedures, animals were maintained under isoflurane anesthesia (4-5% to induce, 1-3% to maintain), and the incision sites were sterilized using a 10% povidone-iodine solution prior to and after surgeries.
(§2) Tactile (mechanical) allodynia was measured using calibrated von Frey filaments (Stoelting, Wood Dale, Ill.) as described in Chaplan, S. R., F. W. Bach, J. M. Pogrel, J. M. Chung and T. L. Yaksh, 1994, Quantitative assessment of tactile allodynia in the rat paw, J. Neurosci. Methods, 53, 55. […] A 50% withdrawal threshold was determined using an up-down procedure (Dixon, W. J., 1980, Efficient analysis of experimental observations, Ann. Rev. Pharmacol. Toxicol., 20, 441). […] Tactile allodynia thresholds were also assessed in several control groups, including naive, sham-operated, and saline infused animals as well as in the contralateral paws of nerve-injured rats. To evaluate the anti-nociceptive effects, animals were administered vehicle or test compound and tactile allodynia was assessed 30 minutes after i.p. administration. […]

Experiment [2] has as its target T1, human KCNQ2 and KCNQ3 subunits (KCNQ2/3 channels) (Homo sapiens, UniProt O43525+O43526).
T1 construct: expressed in transfected cells; host or cells: HEK293
Nature of the experiment: KCNQ2/3 thallium influx FLIPR assay (BTC-AM dye). The experiment is classed as cell-based. Conditions: for EC50: HEK293 cells stably expressing human KCNQ2 and KCNQ3, Tl+ influx; for Emax: maximum response relative to 10 μM retigabine (=100%), read-out: KCNQ2/3 Max. %. As for the experimental part: The following example describes the assay that may be used to identify compounds that activate KCNQ2/3 channels.
HEK293 cells stably expressing human KCNQ2 and KCNQ3 subunits were seeded in 96-well, black-walled, clear-bottomed, poly-D-lysine coated plates (BD Biosciences, Bedford, Mass.) at a density of 1×10^5 cells per well 24 hours before the assay. On the assay day, BTC-AM dye (Invitrogen, Carlsbad, Calif.) was loaded into the cells by replacing the cell culture medium with 55 μL/well of 3 μg/ml dye in Dulbecco's Phosphate Buffered Saline (DPBS) (Invitrogen). Dye loading was allowed to proceed for 2 hours at room temperature and then cells were washed twice with 50 μL/well of assay buffer (in mM: 10 HEPES pH 7.3, 5 glucose, 140 Na-gluconate, 2.5 K-gluconate, 3.6 Ca-gluconate, 2 MgSO4, 0.1 Ouabain) to remove unloaded dye. Cells were incubated in 50 μL of assay buffer before loading onto a FLIPR system (Molecular Devices, Sunnyvale, Calif.). Various concentrations of compounds to be assayed were added to the cells in 50 μL of assay buffer and incubated for 4 minutes. The fluorescence signal was initiated by adding 100 μL of assay buffer containing 6 mM TlNO3 and 10 mM K2SO4. Fluors were excited using the 488-nm line of an argon laser and emission was filtered using a 540±30 nm bandpass filter. Fluorescent signals were recorded for 3 minutes. Sums of the responses over basal responses were plotted versus concentrations of test compounds to obtain an EC50 value and the points fit with a nonlinear regression curve using GraphPad Prism software (GraphPad Software Inc., San Diego, Calif.). EC50 values were calculated from the resulting sigmoidal dose-response curves. The maximum response for each test compound was determined relative to the response produced by 10 μM retigabine. The maximum response of retigabine at 10 μM was set at 100%.

Another experiment addresses T2, human KCNQ4 (Homo sapiens, UniProt P56696).
T2 construct: expressed in transfected cells; host or cells: HEK293
Nature of the experiment: KCNQ4 thallium influx FLIPR TETRA assay. Format: cell-based. The following applies: for EC50: HEK293 cells stably expressing human KCNQ4, Tl+ influx; for Emax: maximum response relative to 10 μM retigabine (=100%), read-out: KCNQ4 Max. %. As for the experimental part:
(§3) The following example describes the assay that may be used to identify compounds that activate KCNQ4 or KCNQ5 channels.
(§4) The assays were performed using a FLIPR^TETRA (Molecular Devices, Sunnyvale, Calif.) in 384-well format. HEK293 cells stably expressing human KCNQ4 or KCNQ5 were seeded in 384-well, black-walled, clear-bottomed, poly-D-lysine coated plates (Greiner Bio-One, Germany) at a density of 1.5×10^4 cells per well, 24 hours before the assay. On the assay day, BTC-AM dye was loaded into the cells by replacing the cell culture medium with 30 μL/well of 2.8 μM dye in DPBS. Dye loading was allowed to proceed for 2 hours at room temperature and then cells were washed once in 30 μL/well of assay buffer (in mM: 10 HEPES pH 7.3, 5 glucose, 140 Na-gluconate, 2.5 K-gluconate, 3.6 Ca-gluconate, 2 MgSO4, 0.1 Ouabain) to remove unloaded dye. Cells were incubated in 30 μL of assay buffer before loading onto a FLIPR^TETRA system. Compounds to be assayed were added to the cells as 4× of final concentration in 15 μL of assay buffer and incubated for 4 minutes at room temperature. The influx signal was initiated by adding 15 μL of assay buffer containing 4.2 mM TlNO3 and 7 mM K2SO4. Tl^+ influx signals were recorded for 3 minutes. Tl^+ influx signal was quantified as light unit changes after Tl^+ addition using the “SUM” statistic from the FLIPR^TETRA software. Sums of the responses over basal responses were plotted versus concentrations of test compounds to obtain an EC50 value and the points fit with a nonlinear regression curve using GraphPad Prism software (GraphPad Software Inc., San Diego, Calif.). EC50 values were calculated from the resulting sigmoidal dose-response curves. The maximum response for each test compound was determined relative to the response produced by 10 μM retigabine. The maximum response of retigabine at 10 μM was set at 100%.

The test system of experiment [3] is capsaicin-induced secondary mechanical hyperalgesia. Put plainly: Capsaicin-induced secondary mechanical hypersensitivity. Format: in vivo, Sprague-Dawley rats. Conditions: rat, about 30 mg/kg i.p., 30 min before testing, 180 min after capsaicin.
Excerpt: as §1
Rats were allowed to acclimate to the study room for 1 hour. They were then briefly restrained, and capsaicin was administered at 10 μg in 10 μl of vehicle (10% ethanol and 2-hydroxypropyl cyclodextrin) by intraplantar injection into the center of the right hind paw. Secondary mechanical hyperalgesia was measured at the heel away from the site of injection at 180 min following capsaicin (Joshi et al 2006, Neuroscience 143, 587-596). Compounds were injected (i.p.) 30 min before testing (150 min post-capsaicin).
Tactile (mechanical) allodynia was measured using calibrated von Frey filaments (Stoelting, Wood Dale, Ill.) as described in Chaplan, S. R., F. W. Bach, J. M. Pogrel, J. M. Chung and T. L. Yaksh, 1994, Quantitative assessment of tactile allodynia in the rat paw, J. Neurosci. Methods, 53, 55. Rats were placed into inverted individual plastic containers (20×12.5×20 cm) on top of a suspended wire mesh grid, and acclimated to the test chambers for 20 minutes. […] A 50% withdrawal threshold was determined using an up-down procedure (Dixon, W. J., 1980, Efficient analysis of experimental observations, Ann. Rev. Pharmacol. Toxicol., 20, 441). […] Tactile allodynia thresholds were also assessed in several control groups, including naive, sham-operated, and saline infused animals as well as in the contralateral paws of nerve-injured rats. To evaluate the anti-nociceptive effects, animals were administered vehicle or test compound and tactile allodynia was assessed 30 minutes after i.p. administration.
Tactile allodynia was measured as described above.

Another experiment concerns the target T3, human KCNQ5 (Homo sapiens, UniProt Q9NR82).
T3 construct: expressed in transfected cells; host or cells: HEK293
Nature of the experiment: KCNQ5 thallium influx FLIPR TETRA assay. The experiment is classed as cell-based. The following applies: for EC50: HEK293 cells stably expressing human KCNQ5, Tl+ influx; for Emax: maximum response relative to 10 μM retigabine (=100%), read-out: KCNQ5 Max. %. As for the experimental part:
as §3, §4

For experiment [4], the system named is spinal nerve ligation-induced neuropathic pain. Nature of the experiment: Spinal nerve ligation (SNL) model of neuropathic pain. The following applies: rat SNL model, about 30 mg/kg i.p., 30 minutes or more before testing. Format: in vivo, Sprague-Dawley rats.
Excerpt: as §1, §2

The term EC50 denotes the concentration giving half of the maximal effect. Higher therefore signals a less potent agent. For the compound `CC(C)c1nc2ccccc2c(=O)n1NC(=O)C[C@@H]1CC[C@H]2C[C@@H]1C2(C)C` [Example 1, 2-[(1S,2S,5S)-6,6-dimethylbicyclo[3.1.1]hept-2-yl]-N-[4-oxo-2-(propan-2-yl)quinazolin-3(4H)-yl]acetamide], in experiment [1], the “change in paw withdrawal latency versus vehicle (mechanical allodynia)” value was “statistically significant change in paw withdrawal latency versus vehicle”. Also, the EC50 in experiment [2] was under 0.1 µM; at human KCNQ4 it was over 30 µM; on human KCNQ5, over 30 µM. Besides, the Emax worked out at 103% in experiment [2], 22% on human KCNQ4 and 164% at human KCNQ5. The “change in paw withdrawal latency versus vehicle (tactile allodynia)” value in experiment [3] and in experiment [4] was “statistically significant change in paw withdrawal latency versus vehicle” in each case.

`CC1(C)[C@H]2CC[C@@H](CC(=O)Nn3c(C4CC4)nc4sccc4c3=O)[C@@H]1C2` [Example 15, N-(2-cyclopropyl-4-oxothieno[2,3-d]pyrimidin-3(4H)-yl)-2-[(1S,2S,5S)-6,6-dimethylbicyclo[3.1.1]hept-2-yl]acetamide]: the EC50 in experiment [2] was 0.1 to 0.5 µM; on human KCNQ4 it was over 30 µM; at human KCNQ5, over 30 µM. The Emax in experiment [2] came to 149%; at human KCNQ4 it was 21%; at human KCNQ5, 210%. In experiment [4], the “change in paw withdrawal latency versus vehicle (tactile allodynia)” value was “statistically significant change in paw withdrawal latency versus vehicle”.
